Source: patent US20180265467A1, “PYRAZOLIDINE DERIVATIVES AND RELATED COMPOUNDS” (SELVITA S.A., priority 2015, published 2018)

Legend:
LDHA = biological target: T1, LDHA (Homo sapiens, UniProt P00338); assay: LDHA assay (decrease in NADH fluorescence); assay type: biochemical; settings: numeric bound given instead of a class symbol
T1 construct: purchased Abcam ab93699
Method: LDHA and LDHB inhibitory activity of compounds of the present invention is quantified employing the decrease in fluorescence of the cofactor—NADH (being the result of oxidation of NADH to NAD+), over the reaction. […] All the experiments are performed in duplicates in a 96-well plate system (black, flat bottom, non-binding).
The procedure for preparation of the experimental plate is as follows (total volume of the reaction mixture: 200 μL/well):
Conditions for LDHA (Abcam, Cat. No# ab93699) Assay
Mixture of appropriate 1× concentrated reaction buffer (175 μL/well) and 40× concentrated LDHA (5 μL/well); pre-incubate for 30 mins at RT is combined with 20× concentrated pyruvate (10 μL/well) and 20× concentrated NADH (10 μL/well). Tested compounds are dissolved in solvent (DMSO, MeOH, EtOH), and then transferred to the V-bottom 96-well plate (mother plate). Single dilution (for % of inhibition determination) or 8-serial dilutions (for IC50 determination) are prepared using the appropriate solvent. The level of NADH fluorescence is then measured using multimode microplate reader (EnSpire, Perkin Elmer). The reaction should be monitored over 20 minutes with the full plate read performed each 5 minutes. Enzymatic reaction should be run at RT.
IC50 is a quantitative measure that indicates how much of a particular compound (inhibitor) is needed to inhibit a given biological process by half. […]

SNU-398 cells = assay: SNU-398 cellular lactate production assay; assay type: cell-based; settings: Snu398 cells; shown in FIG. 1
Method: In each case, and by methods known to those practiced, measurement of cellular lactate production is used to measure the activity of compounds on cancer cells.
Cells are seeded on 96-well plate in complete culture medium (200 μL media/well) at a density of 80,000 SNU-398 cells/well. The following day, eight serial dilutions of the test compound is prepared in complete culture medium and added to cells in a fresh media for 2 h. Following incubation 30 μL of culture medium from each well is transferred to a corresponding well on a new 96-well plate. In parallel Lactate Standard (30 μL/well) (Sigma, Cat. # L7022) is prepared in order to create a standard curve. 60 μL of Lactate Reagent (P000024, M Dialysis AB) is added to each well containing lactate standards or test samples and Incubated in dark for 10 min at RT followed by measurement of OD at 530 nm in a microplate reader.
Background subtracted values derived from the lactate standard and sample readings are used to determine ED50 (or % of inhibition) from data obtained in SNU-398 cellular lactate production assay:
ED50 is a quantitative measure that indicates how much of a particular compound is needed to reduce SNU-398 lactate production by half. After normalization to DMSO-control, the value of ED50 is determined by the GraphPad Prism 5.0 [log(inhibitor) vs. normalized response—Variable slope]. […]

Structure (SMILES)	IC50 (LDHA) [µM]	Inhibition of lactate production (SNU-398 cells)
O=C1N[C@H](Cc2ccccc2)C(O)=C1Sc1cc(Br)ccc1Cl [Example 6E, 5-benzyl-3-[(5-bromo-2-chlorophenyl)sulfanyl]pyrrolidine-2,4-dione]	> 300	–
O=c1c(Sc2ccccc2Cl)c(O)[nH]n1C(c1ccccc1)c1ccc(N2CCOCC2)cc1 (centres unmarked) [Example 8A, Ammonium 4-[(2-chlorophenyl)sulfanyl]-2-{[4-(morpholin-4-yl)phenyl](phenyl)methyl}-5-oxo-2,5-dihydro-1H-pyrazol-3-olate]	–	Inhibition of lactate production
